This is an account of results in patent publication US9446019B2, “Sparstolonin B based pharmaceutical agent for neuroblastoma treatment” (University of South Carolina, priority 2013, dated 2016).

Common to all, as to assay type: cell-based, human
One test relates to neuroblastoma cell lines. In words: Cell cycle analysis by flow cytometry, all lines together. The procedure:
(§1) The cell cycle progression was determined by flow cytometer analysis. Neuroblastoma cells were treated with SsnB or DMSO in DMEM with 10% FBS. Cells were collected after trypsinization with trypsin-EDTA solution (Atlanta Biologicals) and washed with 1× phosphate buffered saline (PBS). Approximately 1×10^6 cells were suspended in 300 μl of ice-cold 1×PBS, fixed by adding 700 μl of chilled absolute ethanol (to make final ethanol concentration 70%) drop wise and incubated for overnight at −20° C. Cells were pelleted at 1000×rpm for 5 min at 4° C., washed with 1×PBS for 3 times and stained with propidium iodide (Sigma-Aldrich, St. Louis, Mo.) by adding 1 ml of propidium iodide staining solution (containing 20 μg/ml propidium iodide and 10 μg/ml DNase-free RNase A in 0.1% Triton X-100/PBS) for 1 h on ice in dark. Samples were subjected to fluorescence-activated cell sorting analyses utilizing Beckman Coulter flow cytometer (Beckman Coulter, Indianapolis, Ind.). A minimum of 10,000 events were analyzed in each experiment.
(§2) To test whether SsnB-induced cell growth inhibition occurs through cell cycle arrest, cell cycle distribution was analyzed by flow cytometry after DNA staining with propidium iodide.

A further test deals with IMR-32 cells. Briefly: Cell cycle analysis by flow cytometry (propidium iodide). The conditions noted are these: SsnB 10 μM, 2 days; control=19.25%. How it is done: as §1, §2
The next test deals with SH-SY5Y cells. Described as above. The conditions noted are these: SsnB 10 μM, 2 days; control=14.33%. How it is done:
as §1, §2

The next test concerns SKNF-1 cells. Described as above. The conditions noted are these: SsnB 10 μM, 4 days; control=14.53%. How it is done: as §1, §2
A further test concerns SK-N-BE(2) cells. The test is described as above. The conditions noted are these: SsnB 10 μM, 4 days; control=22.63%. How it is done:
as §1, §2

The test system of another test is NGP cells. Described as above. The conditions noted are these: SsnB 10 μM, 3 days; control=17.87%. The procedure: as §1, §2
Test [1] deals with reactive oxygen species in neuroblastoma cells. In words: ROS generation, H2DCFDA staining, fluorescence microscopy. The conditions noted are these: SsnB 10 μM; SH-SY5Y and other neuroblastoma lines; p<0.05. How it is done: The production of reactive oxygen species (ROS) in SsnB-treated neuroblastoma cells was detected by a cell-permeable fluorescence probe H2DCFDA (carboxy-2′,7′-dichlorodihydrofluorescein diacetate) according to the manufacturer's instructions (Invitrogen, Carlsbad, Calif.). Briefly, neuroblastoma cells were cultured in DMEM with 10% FBS in Lab-TekII chamber slides (Fisher Scientific, Pittsburg, Pa.) and treated with SsnB for 2 days (SH-SY5Y and IMR-32 cells), 3 days (NGP cell) or 4 days (SKNF-1 and SK-N-BE(2) cells). […] Cells were washed three times with HBSS, mounted with Vectashield mounting medium (Vector Laboratories), and immediately examined under Nikon-E600 fluorescence microscopy equipped with fluorescein isothiocyanate (FITC) filter. Oxidation of H2DCFDA probe occurs almost exclusively in the cytosol, and generates a fluorescence that is proportional to ROS generation in that cell. […] Cells were trypsinized, washed, and re-suspended in PBS and fluorescence intensity was monitored at excitation wavelength 485 nm and emission wavelength 530 nm with a spectramax spectrophotometer (Molecular Devices, Sunnyvale, Calif.).
To test whether SsnB-induced cell death resulted from increased level of ROS, H2DCFDA staining was performed. […] The carboxy-DCF positive cells were quantitated by imageJ software and plotted. […]

The subject of test [2] is intracellular GSH in neuroblastoma cells. In words: Cellular glutathione level, luminescence GSH-Glo assay. The procedure:
Cells treated with SsnB or DMSO were washed and re-suspended in PBS and the intracellular GSH level was measured by luminescence based GSH-Glo glutathione assay kit (Promega, Madison, Wis.) following manufacturer's protocol. The luminescence was monitored in a luminometer (Promega Biosystems, Sunnyvale, Calif.).
At the cellular level, reduced glutathione (GSH) protects cells from oxidative damage resulted from increased superoxides, peroxides and free radicals. Since SsnB induces oxidative stress, SsnB affect of intracellular levels of GSH in neuroblastoma cells was examined. After treatment with SsnB for 2 days (SH-SY5Y and IMR-32), 3 days (NGP cells) or 4 days (SKNF-1 and SK-N-BE(2) cells), the cellular GSH level was measured by luminescence based glutathione assay kit.

`O=c1occ2c3c(ccc(O)c13)Oc1ccc(O)cc1-2` [SsnB, 8,5′-dihydroxy-4-phenyl-5,2′-oxidoisocoumarin]: the “cell cycle progression vs DMSO” value with neuroblastoma cell lines (SsnB 1 μM) was “did not affect cell cycle progression”. In the test on neuroblastoma cell lines (SsnB 10 μM), the G0/G1 phase cells entry was “decrease in G0/G1 phase cells”. Also, the G2/M phase cells in the test on IMR-32 cells amounted to 23.45%; with SH-SY5Y cells, 23.98%; with SKNF-1 cells it was 20.91%; in the test on SK-N-BE(2) cells, 27.15%; in the test on NGP cells it was 26.98%. In test [1], the “number of carboxy-DCF positive cells vs DMSO” value is given as “significantly increased”. Further, the “cellular GSH level” value in test [2] (SsnB 1 μM) is “slightly higher or equal to control levels”; in test [2] (SsnB 10 μM, 2, 3 or 4 days depending on line, p<0.05), ~40 % of control.
